{"source": "patent US20160000504A1", "about": "“METHOD FOR TRAINING IMMUNE CELLS USING MILLIMETER WAVE THERAPY” (Electrohealing Holdings, Inc., priority 2014, published 2016)", "origin": "cited, not measured here", "system": "B16 melanoma cells", "conditions": "1 mg per kg thirty minutes prior to each treatment; MMWT 61.22 GHz, 5 day delay before first irradiation; groups seven and eight vs three and four (FIG. 2A vs FIG. 2B)", "note": "Where a name gives a salt, the structure may show the parent alone.", "data": [{"smiles": "C=CCN1CC[C@]23c4c5ccc(O)c4O[C@H]2C(=O)CC[C@@]3(O)[C@H]1C5", "note": "[naloxone hydrochloride]", "values": [{"measurement": "change in tumor size: effect of opioid antagonist on MMWT inhibition of tumor growth", "value": "blocks the beneficial effects of MMWT"}]}]}
